≈ marks a conversion by molar mass, not a printed value.
Assays:
Mtb-FtsZ [1] = target: T1, Mtb-FtsZ (Mycobacterium tuberculosis, UniProt P9WN95); assay: Mtb-FtsZ polymerization inhibitory assay; type: biochemical; conditions: light scattering, Mtb-FtsZ 15 μM, GTP 100 μM
Mtb-FtsZ [2] = target: T1, Mtb-FtsZ; assay: Transmission electron microscopy; type: biochemical; conditions: Mtb-FtsZ 5 μM, GTP 25 μM
Cytotoxicity, MTT assay = type: cell-based; conditions: African green monkey, Vero cells
Mtb H37Rv = assay: MIC determination by microplate Alamar Blue assay; type: cell-based; conditions: Mycobacterium tuberculosis, read-out: MIC Mtb H37Rv

T1 sequence (P9WN95 whole entry): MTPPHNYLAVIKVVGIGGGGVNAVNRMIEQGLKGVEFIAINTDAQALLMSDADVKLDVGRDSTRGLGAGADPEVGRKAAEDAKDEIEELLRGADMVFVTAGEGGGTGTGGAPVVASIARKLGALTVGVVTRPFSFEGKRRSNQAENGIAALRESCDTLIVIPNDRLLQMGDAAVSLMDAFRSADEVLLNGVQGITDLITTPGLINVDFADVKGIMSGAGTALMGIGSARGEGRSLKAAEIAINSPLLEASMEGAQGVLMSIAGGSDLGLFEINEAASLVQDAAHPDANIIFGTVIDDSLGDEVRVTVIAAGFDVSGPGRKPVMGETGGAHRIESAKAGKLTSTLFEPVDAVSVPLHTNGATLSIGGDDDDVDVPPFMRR

CCCCOC(=O)Nc1cc2nc(C3CCCCC3)[nH]c2cc1Oc1ccc(F)cc1 [Compound 5a, 5-Butoxycarbonylamino-2-cyclohexyl-6-(4-fluorophenoxy)-1H-benzo[d]imidazole]
Inhibition of FtsZ polymerization (Mtb-FtsZ [1]): inhibited FtsZ polymerization in a dose-dependent manner | Effect on FtsZ polymers in TEM (Mtb-FtsZ [2]; 5a 40 μM): the length, density and aggregation was visibly reduced | Effect on FtsZ polymers in TEM (Mtb-FtsZ [2]; 5a 80 μM): very short and dispersed FtsZ polymers were observed

O=C(Nc1cc2nc(C3CCCCC3)[nH]c2cc1Oc1ccc(F)cc1)c1ccc(F)cc1F [Compound 5d, 2-Cyclohexyl-5-(2,4-difluorobenzamido)-6-(4-fluorophenoxy)-1H-benzo[d]imidazole]
Inhibition of FtsZ polymerization (Mtb-FtsZ [1]): inhibited FtsZ polymerization in a dose-dependent manner

Cc1ccc(C(=O)Nc2cc3nc(C4CCCCC4)[nH]c3cc2Sc2ccccc2)cc1 [Compound 5f, 2-Cyclohexyl-5-(4-methxylbenzamido)-6-(phenylthio)-1H-benzo[d]imidazole]
IC50 at 3 days (Cytotoxicity, MTT assay): > 200 µM

CCCCSc1cc2[nH]c(C3CCCCC3)nc2cc1NC(=O)c1ccc(C)cc1 [Compound 5i, 6-(Butylthio)-5-(4-metylbenzamido)-2-cyclohexyl-1H-benzo[d]imidazole]
MIC (Mtb H37Rv): 1.25 µg/mL (≈ 2.96 µM)

Source: PMC4045703 (Bioorganic & medicinal chemistry, 2014)
